Patent US20080058213A1, “Benzoxazole Compounds” (priority 2004, published 2008)

Tests used:
Type in all cases: in vivo
slender amaranth = test: Foliage treatment test for upland field (Test Example 3): slender amaranth; settings: foliage treatment at 1.0-2.0 leaf stage of southern crabgrass, examined after 3 weeks
From the text: (§1) Evaluation of the herbicidal effect is shown in the following six grades, by comparing the condition of untreated control and growth inhibition (%): • 0: 0%-less than 20% • 1: 20%-less than 40% • 2: 40%-less than 60% • 3: 60%-less than 80% • 4: 80%-less than 100% • 5: 100%.
(§2) Compost mixed soil was filled in 1/3,000 are pots, seeded with southern crabgrass, common lambsquaters, slender amaranth, common purslane, velvetleaf, wheat, corn and soybean. The seeds were covered up with the soil and cultured in a glasshouse kept at 25° C. on the average.
(§3) Wettable powders containing the object compounds (1) as identified in Table 1, which were formulated following Preparation Example 2, were diluted with water to the prescribed dose of the active ingredient, and uniformly sprayed onto the weeds at 1.0-2.0 leaf stage of the southern crabgrass at an application water of 15 liters per are.
(§4) After placing the test pots in a grasshouse kept at 25° C. on the average for 3 weeks, the herbicidal effect was examined.
(§5) Evaluation of the herbicidal effect was conducted in the similar manner to Test Example 1.

soybean [1] = test: Soil treatment test for upland field (Test Example 2): phytotoxicity to soybean; settings: soil treatment before germination, examined after 3 weeks
From the text: (§6) Evaluation of phytotoxicity is shown in the following six grades, as compared with the condition of untreated control: • 0: normal growth • 1: little damaged • 2: low damaged • 3: medium damaged • 4: serious damaged • 5: complete killed.
(§7) Upland field soil was filled in 1/3,000 are pots, seeded with southern crabgrass (Digitaria ciliaris), common lambsquaters (Chenopodium album), slender amaranth (Amaranthus viridis), common purslane (Portulaca oleracea), velvetleaf (Abutilon theophrasti), wheat, corn and soybean. The seeds were covered up with the soil.
(§8) After placing the test pots in a glasshouse which was kept at an average temperature of 25° C. for 3 weeks, the herbicidal effect was examined.

common lambsquaters = test: Foliage treatment test for upland field (Test Example 3): common lambsquaters; settings: foliage treatment at 1.0-2.0 leaf stage of southern crabgrass, examined after 3 weeks
From the text: as §1, §2, §3, §4, §5

wheat [2] = test: Soil treatment test for upland field (Test Example 2): phytotoxicity to wheat; settings: soil treatment before germination, examined after 3 weeks
From the text: as §6, §7, §8

corn [3] = test: Foliage treatment test for upland field (Test Example 3): phytotoxicity to corn; settings: foliage treatment at 1.0-2.0 leaf stage of southern crabgrass, examined after 3 weeks
Procedure: as §6, §2, §4

[4] = test system: common purslane (Portulaca oleracea); test: Soil treatment test for upland field (Test Example 2): common purslane; settings: soil treatment before germination, examined after 3 weeks
From the text: as §1, §7
(§9) Wettable powders containing the object compounds (1) as identified in Table 1, which were formulated following Preparation Example 2, were diluted with adequate amount of water to secure the prescribed dose of the active ingredient, and uniformly sprayed onto the surface soil layer after the seeding and before germination of the weeds, at an application water of 15 liters per are.
as §8
(§10) Evaluations of the herbicidal effect and phytotoxicity were made in the manner similar to those in the above Test Example 1.

common purslane = test: Foliage treatment test for upland field (Test Example 3): common purslane; settings: foliage treatment at 1.0-2.0 leaf stage of southern crabgrass, examined after 3 weeks
From the text: as §1, §2, §3, §4, §5

soybean [5] = test: Foliage treatment test for upland field (Test Example 3): phytotoxicity to soybean; settings: foliage treatment at 1.0-2.0 leaf stage of southern crabgrass, examined after 3 weeks
Procedure: as §6, §2, §4

[6] = test system: velvetleaf (Abutilon theophrasti); test: Soil treatment test for upland field (Test Example 2): velvetleaf; settings: soil treatment before germination, examined after 3 weeks
From the text: as §1, §7, §9, §8, §10

wheat [7] = test: Foliage treatment test for upland field (Test Example 3): phytotoxicity to wheat; settings: foliage treatment at 1.0-2.0 leaf stage of southern crabgrass, examined after 3 weeks
Procedure: as §6, §2, §4

velvetleaf = test: Foliage treatment test for upland field (Test Example 3): velvetleaf; settings: foliage treatment at 1.0-2.0 leaf stage of southern crabgrass, examined after 3 weeks
From the text: as §1, §2, §3, §4, §5

[8] = test system: slender amaranth (Amaranthus viridis); test: Soil treatment test for upland field (Test Example 2): slender amaranth; settings: soil treatment before germination, examined after 3 weeks
From the text: as §1, §7, §9, §8, §10

corn [9] = test: Soil treatment test for upland field (Test Example 2): phytotoxicity to corn; settings: soil treatment before germination, examined after 3 weeks
From the text: as §6, §7, §8

[10] = test system: southern crabgrass (Digitaria ciliaris); test: Soil treatment test for upland field (Test Example 2): southern crabgrass; settings: soil treatment before germination, examined after 3 weeks
From the text: as §1, §7, §9, §8, §10

southern crabgrass = test: Foliage treatment test for upland field (Test Example 3): southern crabgrass; settings: foliage treatment at 1.0-2.0 leaf stage of southern crabgrass, examined after 3 weeks
From the text: as §1, §2, §3, §4, §5

[11] = test system: common lambsquaters (Chenopodium album); test: Soil treatment test for upland field (Test Example 2): common lambsquaters; settings: soil treatment before germination, examined after 3 weeks
From the text: as §1, §7, §9, §8, §10

COCC(=Cc1cccc(C(F)(F)F)c1)c1nc2cc(OC(F)(F)F)ccc2o1 [Compound 46]
Herbicidal Effect slender amaranth (slender amaranth; dose 2.5 g ai/a): 5 (100%) | Herbicidal Effect slender amaranth (slender amaranth; dose 5 g ai/a): 5 (100%) | Phytotoxicity soybean (soybean [1]; dose 2.5 g ai/a): 0 | Phytotoxicity soybean (soybean [1]; dose 5 g ai/a): 1 | Herbicidal Effect Common lambsquatters (common lambsquaters; dose 2.5 g ai/a): 5 (100%) | Herbicidal Effect Common lambsquatters (common lambsquaters; dose 5 g ai/a): 5 (100%) | Phytotoxicity wheat (wheat [2]; dose 2.5 g ai/a): 0 | Phytotoxicity wheat (wheat [2]; dose 5 g ai/a): 0 | Phytotoxicity corn (corn [3]; dose 2.5 g ai/a): 0 | Phytotoxicity corn (corn [3]; dose 5 g ai/a): 1 | Herbicidal Effect common purslane ([4]; dose 2.5 g ai/a): 5 (100%) | Herbicidal Effect common purslane ([4]; dose 5 g ai/a): 5 (100%) | Herbicidal Effect common purslane (common purslane; dose 2.5 g ai/a): 5 (100%) | Herbicidal Effect common purslane (common purslane; dose 5 g ai/a): 5 (100%) | Phytotoxicity soybean (soybean [5]; dose 2.5 g ai/a): 1 | Phytotoxicity soybean (soybean [5]; dose 5 g ai/a): 1 | Herbicidal Effect velvetleaf ([6]; dose 2.5 g ai/a): 4 (80%-less than 100%) | Herbicidal Effect velvetleaf ([6]; dose 5 g ai/a): 5 (100%) | Phytotoxicity wheat (wheat [7]; dose 2.5 g ai/a): 0 | Phytotoxicity wheat (wheat [7]; dose 5 g ai/a): 1 | Herbicidal Effect velvetleaf (velvetleaf; dose 2.5 g ai/a): 4 (80%-less than 100%) | Herbicidal Effect velvetleaf (velvetleaf; dose 5 g ai/a): 5 (100%) | Herbicidal Effect slender amaranth ([8]; dose 2.5 g ai/a): 5 (100%) | Herbicidal Effect slender amaranth ([8]; dose 5 g ai/a): 5 (100%) | Phytotoxicity corn (corn [9]; dose 2.5 g ai/a): 0 | Phytotoxicity corn (corn [9]; dose 5 g ai/a): 1 | Herbicidal Effect southern crabgrass ([10]; dose 2.5 g ai/a): 4 (80%-less than 100%) | Herbicidal Effect southern crabgrass ([10]; dose 5 g ai/a): 5 (100%) | Herbicidal Effect southern crabgrass (southern crabgrass; dose 2.5 g ai/a): 4 (80%-less than 100%) | Herbicidal Effect southern crabgrass (southern crabgrass; dose 5 g ai/a): 5 (100%) | Herbicidal Effect common lambsquaters ([11]; dose 2.5 g ai/a): 5 (100%) | Herbicidal Effect common lambsquaters ([11]; dose 5 g ai/a): 5 (100%)

COCC(=Cc1cccc(C(F)(F)F)c1)c1nc2cc(C#N)c(F)cc2o1 [Compound 117]
Herbicidal Effect slender amaranth (slender amaranth; dose 2.5 g ai/a): 5 (100%) | Herbicidal Effect slender amaranth (slender amaranth; dose 5 g ai/a): 5 (100%) | Herbicidal Effect Common lambsquatters (common lambsquaters; dose 2.5 g ai/a): 5 (100%) | Herbicidal Effect Common lambsquatters (common lambsquaters; dose 5 g ai/a): 5 (100%) | Phytotoxicity corn (corn [3]; dose 2.5 g ai/a): 0 | Phytotoxicity corn (corn [3]; dose 5 g ai/a): 1 | Herbicidal Effect common purslane (common purslane; dose 2.5 g ai/a): 5 (100%) | Herbicidal Effect common purslane (common purslane; dose 5 g ai/a): 5 (100%) | Phytotoxicity soybean (soybean [5]; dose 2.5 g ai/a): 0 | Phytotoxicity soybean (soybean [5]; dose 5 g ai/a): 1 | Phytotoxicity wheat (wheat [7]; dose 2.5 g ai/a): 0 | Phytotoxicity wheat (wheat [7]; dose 5 g ai/a): 0 | Herbicidal Effect velvetleaf (velvetleaf; dose 2.5 g ai/a): 4 (80%-less than 100%) | Herbicidal Effect velvetleaf (velvetleaf; dose 5 g ai/a): 5 (100%) | Herbicidal Effect southern crabgrass (southern crabgrass; dose 2.5 g ai/a): 4 (80%-less than 100%) | Herbicidal Effect southern crabgrass (southern crabgrass; dose 5 g ai/a): 5 (100%)

CCOCC(=Cc1cccc(C(F)(F)F)c1)c1nc2cc(F)c(F)cc2o1 [Compound 127]
Phytotoxicity soybean (soybean [1]; dose 2.5 g ai/a): 0 | Phytotoxicity soybean (soybean [1]; dose 5 g ai/a): 0 | Phytotoxicity wheat (wheat [2]; dose 2.5 g ai/a): 0 | Phytotoxicity wheat (wheat [2]; dose 5 g ai/a): 0 | Herbicidal Effect common purslane ([4]; dose 2.5 g ai/a): 5 (100%) | Herbicidal Effect common purslane ([4]; dose 5 g ai/a): 5 (100%) | Herbicidal Effect velvetleaf ([6]; dose 2.5 g ai/a): 3 (60%-less than 80%) | Herbicidal Effect velvetleaf ([6]; dose 5 g ai/a): 5 (100%) | Herbicidal Effect slender amaranth ([8]; dose 2.5 g ai/a): 5 (100%) | Herbicidal Effect slender amaranth ([8]; dose 5 g ai/a): 5 (100%) | Phytotoxicity corn (corn [9]; dose 2.5 g ai/a): 0 | Phytotoxicity corn (corn [9]; dose 5 g ai/a): 0 | Herbicidal Effect southern crabgrass ([10]; dose 2.5 g ai/a): 4 (80%-less than 100%) | Herbicidal Effect southern crabgrass ([10]; dose 5 g ai/a): 5 (100%) | Herbicidal Effect common lambsquaters ([11]; dose 2.5 g ai/a): 5 (100%) | Herbicidal Effect common lambsquaters ([11]; dose 5 g ai/a): 5 (100%)

CCOCC(=Cc1cccc(C(F)(F)F)c1)c1nc2cc(F)c(C(F)(F)F)cc2o1 [Compound 141]
Phytotoxicity soybean (soybean [1]; dose 2.5 g ai/a): 0 | Phytotoxicity soybean (soybean [1]; dose 5 g ai/a): 0 | Phytotoxicity wheat (wheat [2]; dose 2.5 g ai/a): 0 | Phytotoxicity wheat (wheat [2]; dose 5 g ai/a): 1 | Herbicidal Effect common purslane ([4]; dose 2.5 g ai/a): 5 (100%) | Herbicidal Effect common purslane ([4]; dose 5 g ai/a): 5 (100%) | Herbicidal Effect velvetleaf ([6]; dose 2.5 g ai/a): 3 (60%-less than 80%) | Herbicidal Effect velvetleaf ([6]; dose 5 g ai/a): 5 (100%) | Herbicidal Effect slender amaranth ([8]; dose 2.5 g ai/a): 5 (100%) | Herbicidal Effect slender amaranth ([8]; dose 5 g ai/a): 5 (100%) | Phytotoxicity corn (corn [9]; dose 2.5 g ai/a): 0 | Phytotoxicity corn (corn [9]; dose 5 g ai/a): 0 | Herbicidal Effect southern crabgrass ([10]; dose 2.5 g ai/a): 4 (80%-less than 100%) | Herbicidal Effect southern crabgrass ([10]; dose 5 g ai/a): 5 (100%) | Herbicidal Effect common lambsquaters ([11]; dose 2.5 g ai/a): 5 (100%) | Herbicidal Effect common lambsquaters ([11]; dose 5 g ai/a): 5 (100%)
